Data published in patent publication US20230146675A1, “PYRIMIDO[5,4-d]PYRIMIDINE DERIVATIVES AS ENT INHIBITORS FOR THE TREATMENT OF CANCERS, AND COMBINATION THEREOF WITH ADENOSINE RECEPTOR ANTAGONISTS” (ITEOS BELGIUM SA, priority 2020, published 2023).
Where two headings read alike, the source gives them in different places.

How the values were obtained:
[1] = tested on: stimulated primary human T cells; assay: T cell proliferation assay (rescue of proliferation in presence of 100 uM ATP); type: cell-based
Description: Purpose. The aim of this study was to determine the potency of equilibrative nucleoside transporter 1 (ENT1) inhibitors to rescue proliferation by stimulated primary human T cells incubated in the presence of 100 uM Adenosine triphosphate (ATP) with: • Condition A: X-VIVO15 • Condition B: X-VIVO15, 2% Human Serum Albumine (HSA) and 0.1% α-1-Acid Glycoprotein (AAG)
Method. Cryopreserved purified human CD3+ T cells were thawed and washed twice with RPMI1640 medium, UltraGlutamine containing 10% hiFBS.
Cells were suspended in PBS containing 10% hiFBS. Cells were stained with CFSE by adding 2 μM solution in PBS, to get a final 1 μM CFSE solution. Cells were incubated while rotating for 5 minutes. Reaction was stopped by adding PBS with 10% FBS and cells were centrifuged for 5 minutes at 1500 rpm.
Cells were resuspended at 1.6×10^6 cells/mL, either in X-VIVO15 medium or in 4% Human Serum Albumin and 0.2% α-1-Acid Glycoprotein. 50 μL of cell suspension (8×10^4 T cells) was added to wells of sterile round-bottom 96-well plates. Cells were activated by adding 50 μL of anti-CD3 anti-CD28 coated microbeads, suspended either in XVIVO-15 medium or in 4% HSA and 0.2% α-1-Acid Glycoprotein, at a ratio of one microbead per two cells.
Serial dilutions of the ENT1 inhibitors were prepared in X-VIVO15 from 10 mM stock solutions in DMSO, and 50 μL was added to the wells.
ATP powder was diluted in X-VIVO15, and 50 μL of this compound was added to the wells to reach a final assay concentration of 100 μM. Final volume of 200 μL.
The experiments were also performed in 384 well plates—all volumes reduced by a factor of 4 ([…]) with a final volume of 50 μL.
Experiments were performed in duplicate. The cells were placed in a 37° C. humidified tissue culture incubator with 5% CO2 for 72 hours for 96 well plates, 96 hours for 384 well plates. After 72 or 96 hours, proliferation was measured determined by CFSE dilution via flow cytometry.
Results. Compounds of the invention have good ENT1 inhibitory properties.

[2] = molecular target: T1, Human phosphodiesterase-4B1 (Homo sapiens, UniProt Q07343); assay: PDE4B1 (h) assay; type: biochemical
T1 construct: host or cells: Sf9 cells
T1 sequence (Q07343 whole entry): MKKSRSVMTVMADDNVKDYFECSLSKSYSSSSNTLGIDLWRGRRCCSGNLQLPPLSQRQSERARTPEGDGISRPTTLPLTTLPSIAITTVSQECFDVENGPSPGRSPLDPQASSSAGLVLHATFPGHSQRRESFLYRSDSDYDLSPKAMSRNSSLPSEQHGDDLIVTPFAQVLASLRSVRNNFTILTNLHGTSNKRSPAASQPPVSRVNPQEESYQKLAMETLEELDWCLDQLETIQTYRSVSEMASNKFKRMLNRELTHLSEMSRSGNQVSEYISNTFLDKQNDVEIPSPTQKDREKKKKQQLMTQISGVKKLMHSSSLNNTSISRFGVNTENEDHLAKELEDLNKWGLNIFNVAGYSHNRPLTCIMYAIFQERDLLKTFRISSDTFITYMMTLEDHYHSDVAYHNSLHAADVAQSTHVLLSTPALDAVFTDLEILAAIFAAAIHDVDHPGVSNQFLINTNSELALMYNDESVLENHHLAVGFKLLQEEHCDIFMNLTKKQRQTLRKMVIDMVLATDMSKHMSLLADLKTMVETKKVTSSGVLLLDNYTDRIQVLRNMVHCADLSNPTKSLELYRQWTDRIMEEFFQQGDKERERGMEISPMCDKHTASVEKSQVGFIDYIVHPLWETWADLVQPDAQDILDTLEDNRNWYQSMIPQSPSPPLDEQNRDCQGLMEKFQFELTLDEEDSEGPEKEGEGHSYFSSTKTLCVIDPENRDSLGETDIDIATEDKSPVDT
Description: (§1) The test compound (compound 72), reference compound or water (control) were added to a buffer containing 40 mM Tris/HCl (pH 7.4) and 8 mM MgCl2, 450 nM cAMP and 0.25 μCi [3H]cAMP. Thereafter, the reaction was initiated by addition of the enzyme (about 10 U) and the mixture was incubated for 20 min at 22° C. For basal control measurements, the enzyme was omitted from the reaction mixture. Following incubation SPA beads were added. After 30 min at 22° C. under shaking, the amount of [3H]5′AMP was quantified with a scintillation counter (MicroBeta, Perkin Elmer). The results were expressed as a percent inhibition of the control enzyme activity. The standard inhibitory reference compound was Ro 20-1724, which was tested in each experiment at several concentrations to obtain an inhibition curve from which its IC50 value was calculated. • Human phosphodiesterase-4B1 quantified by measuring the formation of 5′AMP from cAMP using a human recombinant enzyme expressed in Sf9 cells.
The test compound (compound 72), reference compound or water (control) were added to a buffer containing 40 mM Tris/HCl (pH 7.4), 8 mM MgCl2 and 1.7 mM EGTA/NaOH, 450 nM cAMP and 0.25 μCi [3H]cAMP. […] After 30 min at 22° C. under shaking, the amount of [3H]5′AMP was quantified with a scintillation counter (MicroBeta, Perkin Elmer). The results were expressed as a percent inhibition of the control enzyme activity. […]

[3] = molecular target: T2, Human phosphodiesterase-11A (Homo sapiens, UniProt Q9HCR9); assay: PDE11A (h) assay; type: biochemical
T2 construct: host or cells: Sf9 cells
T2 sequence (Q9HCR9 whole entry): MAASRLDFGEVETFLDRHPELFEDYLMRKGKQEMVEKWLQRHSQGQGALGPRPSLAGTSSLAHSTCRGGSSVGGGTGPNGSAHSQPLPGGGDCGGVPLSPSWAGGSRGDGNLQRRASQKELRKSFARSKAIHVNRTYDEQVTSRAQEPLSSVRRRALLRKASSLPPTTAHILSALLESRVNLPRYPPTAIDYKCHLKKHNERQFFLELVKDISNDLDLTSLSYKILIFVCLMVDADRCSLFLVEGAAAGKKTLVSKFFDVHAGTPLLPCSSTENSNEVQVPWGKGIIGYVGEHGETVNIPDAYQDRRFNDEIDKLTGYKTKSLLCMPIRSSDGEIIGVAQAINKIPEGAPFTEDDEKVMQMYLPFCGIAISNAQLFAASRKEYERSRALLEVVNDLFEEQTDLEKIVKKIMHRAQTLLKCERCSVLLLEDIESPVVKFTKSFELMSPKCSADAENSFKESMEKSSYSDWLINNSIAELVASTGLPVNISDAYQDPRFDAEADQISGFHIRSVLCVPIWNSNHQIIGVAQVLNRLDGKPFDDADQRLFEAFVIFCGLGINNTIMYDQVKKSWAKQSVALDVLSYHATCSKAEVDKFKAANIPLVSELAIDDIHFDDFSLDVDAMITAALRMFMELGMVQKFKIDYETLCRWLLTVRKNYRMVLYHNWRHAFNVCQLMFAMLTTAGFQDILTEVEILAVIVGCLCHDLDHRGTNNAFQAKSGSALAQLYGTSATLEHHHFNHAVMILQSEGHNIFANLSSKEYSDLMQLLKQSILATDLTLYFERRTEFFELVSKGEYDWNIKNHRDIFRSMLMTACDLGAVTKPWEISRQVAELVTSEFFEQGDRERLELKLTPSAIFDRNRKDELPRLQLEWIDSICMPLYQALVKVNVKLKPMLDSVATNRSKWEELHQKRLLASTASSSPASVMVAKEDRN
Description: as §1, with “4 ng)” for “10 U)”, “15” for “20”, “(Topcount, Packard).” for “(MicroBeta, Perkin Elmer).”, “milrinone,” for “Ro 20-1724,”, “phosphodiesterase-11A” for “phosphodiesterase-4B1”
The test compound (compound 72), reference compound or water (control) were added to a buffer containing 40 mM Tris/HCl (pH 7.4) and 8 mM MgCl2, 450 nM cAMP and 0.25 μCi [3H]cAMP. […] After 30 min at 22° C. under shaking, the amount of [3H]5′AMP was quantified with a scintillation counter (MicroBeta, Perkin Elmer). The results were expressed as a percent inhibition of the control enzyme activity.

COCCN(CCOC)c1nc(N2CCN(C)C(=O)C2)c2nc(N(CCOC)CCOC)nc(N3CCC(OC)CC3)c2n1 [Compound 72, 4-(2,6-bis(bis(2-methoxyethyl)amino)-8-(4-methoxypiperidin-1-yl)pyrimido[5,4-d]pyrimidin-4-yl)-1-methylpiperazin-2-one]
IC50 ([1]; Condition A: X-VIVO15, read-out: TCell proliferation (Condition A) IC50): 100 to 500 nM | IC50 ([1]; Condition B: X-VIVO15, 2% HSA and 0.1% AAG, read-out: TCell proliferation (Condition B) IC50): 100 to 500 nM | IC50 [2]: 1000 to 10000 nM | IC50 [3]: > 10000 nM | potency for PDE11A as compared to dipyridamole [3]: reduced as compared to dipyridamole
